# Data from article PMC6378217, “The lysyl oxidase like 2/3 enzymatic inhibitor, PXS‐5153A, reduces crosslinks and ameliorates fibrosis” (Journal of Cellular and Molecular Medicine, 2018).
# Columns and labels:
# [1] = target: Sigma σ1 (Homo sapiens, UniProt Q99720); assay: Eurofins Hit Profiling Screen; type: binding; details: 10 μmol/L
# [2] = target: Adrenergic α1B (Rattus norvegicus, UniProt P15823); assay: Eurofins Hit Profiling Screen; type: binding; details: 10 μmol/L
# Adrenergic α1B, sequence (P15823 whole entry): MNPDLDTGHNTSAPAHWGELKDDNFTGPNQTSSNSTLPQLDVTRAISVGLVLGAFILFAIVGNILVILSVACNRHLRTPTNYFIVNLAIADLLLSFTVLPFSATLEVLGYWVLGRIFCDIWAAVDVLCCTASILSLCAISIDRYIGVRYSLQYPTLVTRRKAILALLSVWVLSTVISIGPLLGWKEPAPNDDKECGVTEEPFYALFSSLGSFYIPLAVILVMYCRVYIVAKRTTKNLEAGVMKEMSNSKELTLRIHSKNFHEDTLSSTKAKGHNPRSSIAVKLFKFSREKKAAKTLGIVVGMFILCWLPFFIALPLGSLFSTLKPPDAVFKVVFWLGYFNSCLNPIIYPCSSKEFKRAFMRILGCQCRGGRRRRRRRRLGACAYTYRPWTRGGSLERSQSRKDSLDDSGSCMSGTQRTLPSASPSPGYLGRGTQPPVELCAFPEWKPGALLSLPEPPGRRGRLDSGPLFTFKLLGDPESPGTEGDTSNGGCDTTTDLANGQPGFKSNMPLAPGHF
# Sigma σ1, sequence (Q99720 whole entry): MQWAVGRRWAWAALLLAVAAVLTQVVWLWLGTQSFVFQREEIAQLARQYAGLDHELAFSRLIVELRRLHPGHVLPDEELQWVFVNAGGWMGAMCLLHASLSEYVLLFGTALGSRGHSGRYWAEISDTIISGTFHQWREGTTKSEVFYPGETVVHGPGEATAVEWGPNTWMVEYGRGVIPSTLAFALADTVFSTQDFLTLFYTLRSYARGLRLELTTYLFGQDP
smiles,measurement,setting,value
Cc1c(-c2cccc(S(=O)(=O)N(C)C)c2)c2ncccc2n1C/C(F)=C/CN.Cl.Cl [PXS-5153A],% inhibition,[1],8%
same,% inhibition,[2],6%
